Measured values as given in ChEMBL document CHEMBL4028815, “Novel phosphonate analogs of sulforaphane: Synthesis, in vitro and in vivo anticancer activity” (Eur J Med Chem, 2017).
Activity calls are given as the source filed them. The rule behind the calls is not given here.

Assays:
[1] = system: Mus musculus; assay: Toxicity in BALB/c mdb mouse implanted with mouse 4T1 cells assessed as spleen weight at 300 umol/kg, ip administered five times weekly measured at 29 day post cell innoculum (reference value: 0.603 +/- 0.133 g); format: organism-based; conditions: in vivo, 696 h
[2] = system: LoVo; assay: Induction of apoptosis in human LoVo cells assessed as loss of mitochondrial membrane potential at 15 uM after 24 hrs by JC-1 staining based flow cytometric method relative to control; format: functional
[3] = system: LoVo/DX; assay: Induction of apoptosis in human LoVo/DX cells assessed as late apoptotic cells at 15 uM after 24 hrs by APC-Annexin-V/propidium iodide staining based flow cytometric method relative to control; format: functional
[4] = system: Mus musculus; assay: Toxicity in BALB/c mdb mouse implanted with mouse 4T1 cells assessed as WBC level at 300 umol/kg, ip administered five times weekly measured at 29 day post cell innoculum (reference value: 212.3 +/- 82.8 10^3/uL); format: organism-based; conditions: in vivo, 696 h
[5] = system: Mus musculus; assay: Hepatotoxicity in BALB/c mdb mouse implanted with mouse 4T1 cells assessed as liver weight at 300 umol/kg, ip administered five times weekly measured at 29 day post cell innoculum (reference value: 1.2 +/- 0.13 g); format: toxicity, organism-based; conditions: in vivo, 696 h
[6] = system: Mus musculus; assay: Toxicity in BALB/c mdb mouse implanted with mouse 4T1 cells assessed as serum AST level at 300 umol/kg, ip administered five times weekly measured at 29 day post cell innoculum (reference value: 136 +/- 10.3 U/L); format: organism-based; conditions: in vivo, 696 h
[7] = system: Mus musculus; assay: Toxicity in BALB/c mdb mouse implanted with mouse 4T1 cells assessed as serum PLT level at 300 umol/kg, ip administered five times weekly measured at 29 day post cell innoculum (reference value: 972 +/- 157 10^3/uL); format: organism-based; conditions: in vivo, 696 h
[8] = system: 4T1; assay: Anti-tumor activity against mouse 4T1 cells implanted in BALB/c mdb mouse assessed as tumor growth inhibition at 300 umol/kg, ip administered five times weekly measured on day 29 post cell innoculum relative to control; format: functional; conditions: 4T1, ip, 696 h, read-out: TGI
[9] = system: Mus musculus; assay: Toxicity in BALB/c mdb mouse implanted with mouse 4T1 cells assessed as RBC level at 300 umol/kg, ip administered five times weekly measured at 29 day post cell innoculum (reference value: 8.6 +/- 0.9 10^6/uL); format: organism-based; conditions: in vivo, 696 h
[10] = system: Mus musculus; assay: Toxicity in BALB/c mdb mouse implanted with mouse 4T1 cells assessed as hematocrit at 300 umol/kg, ip administered five times weekly measured at 29 day post cell innoculum (reference value: 39.9 +/- 3.7 %); format: organism-based; conditions: in vivo, 696 h
[11] = Induction of apoptosis in human LoVo/DX cells assessed as loss of mitochondrial membrane potential at 15 uM after 24 hrs by JC-1 staining based flow cytometric method relative to control; format: functional
[12] = system: LoVo; assay: Induction of apoptosis in human LoVo cells assessed as late apoptotic cells at 15 uM after 24 hrs by APC-Annexin-V/propidium iodide staining based flow cytometric method relative to control; format: functional
[13] = system: Mus musculus; assay: Toxicity in BALB/c mdb mouse implanted with mouse 4T1 cells assessed as serum creatinine level at 300 umol/kg, ip administered five times weekly measured at 29 day post cell innoculum (reference value: 9.3 +/- 1.2 umol/L); format: organism-based; conditions: in vivo, 696 h
[14] = system: Mus musculus; assay: Toxicity in BALB/c mdb mouse implanted with mouse 4T1 cells assessed as serum ALT level at 300 umol/kg, ip administered five times weekly measured at 29 day post cell innoculum (reference value: 23.8 +/- 2.2 U/L); format: organism-based; conditions: in vivo, 696 h
[15] = system: Mus musculus; assay: Toxicity in BALB/c mdb mouse implanted with mouse 4T1 cells assessed as serum urea level at 300 umol/kg, ip administered five times weekly measured at 29 day post cell innoculum (reference value: 3.8 +/- […]); format: organism-based; conditions: in vivo, 696 h
[16] = system: Mus musculus; assay: Toxicity in BALB/c mdb mouse implanted with mouse 4T1 cells assessed as body weight loss at 300 umol/kg, ip administered five times weekly measured on day 11 post cell innoculum; format: organism-based; conditions: in vivo
[17] = system: LoVo; assay: Cell cycle arrest in human LoVo cells at 15 uM after 24 hrs by propidium iodide staining based flow cytometric method; format: functional
[18] = system: Mus musculus; assay: Toxicity in BALB/c mdb mouse implanted with mouse 4T1 cells assessed as hemoglobin level at 300 umol/kg, ip administered five times weekly measured at 29 day post cell innoculum (reference value: 15.1 +/- 1.5 g/dl); format: organism-based; conditions: in vivo, 696 h
[19] = system: LoVo; assay: Induction of apoptosis in human LoVo cells assessed as necrotic cells at 15 uM after 24 hrs by APC-Annexin-V/propidium iodide staining based flow cytometric method (reference value: 10%); format: functional
[20] = system: 4T1; assay: Anti-tumor activity against mouse 4T1 cells implanted in BALB/c mdb mouse assessed as lung metastasis at 300 umol/kg, ip administered five times weekly measured at 29 days post cell innoculum (reference value: 56 +/- 25); format: functional
[21] = system: 4T1; assay: Anti-tumor activity against mouse 4T1 cells implanted in BALB/c mdb mouse assessed as tumor growth inhibition at 300 umol/kg, ip administered five times weekly measured on day 15 post cell innoculum relative to control; format: functional; conditions: 4T1, ip, 360 h, read-out: TGI
[22] = Induction of apoptosis in human LoVo/DX cells assessed as increase in caspase3/7 activity at 15 uM using Ac-DEVD-ACC as substrate pretreated for 24 hrs followed by substrate addition measured for 2 hrs by fluorescence assay relative to control; format: functional
[23] = system: LoVo; assay: Induction of apoptosis in human LoVo cells assessed as increase in early apoptotic cells at 15 uM after 24 hrs by APC-Annexin-V/propidium iodide staining based flow cytometric method relative to control; format: functional
[24] = system: Mus musculus; assay: Nephrotoxicity in BALB/c mdb mouse implanted with mouse 4T1 cells assessed as kidney weight at 300 umol/kg, ip administered five times weekly measured at 29 day post cell innoculum (reference value: 0.136 +/- 0.006 g); format: toxicity, organism-based; conditions: in vivo, 696 h
[25] = system: Mus musculus; assay: Toxicity in BALB/c mdb mouse implanted with mouse 4T1 cells assessed as lung weight at 300 umol/kg, ip administered five times weekly measured at 29 day post cell innoculum (reference value: 0.2 +/- 0.018 g); format: organism-based; conditions: in vivo, 696 h
[26] = system: LoVo; assay: Induction of apoptosis in human LoVo cells assessed as increase in caspase3/7 activity at 15 uM using Ac-DEVD-ACC as substrate pretreated for 24 hrs followed by substrate addition measured for 2 hrs by fluorescence assay relative to control; format: functional
[27] = system: Mus musculus; assay: Toxicity in BALB/c mdb mouse implanted with mouse 4T1 cells assessed as body weight loss at 300 umol/kg, ip administered on day 14 post cell innoculum; format: organism-based; conditions: in vivo
[28] = system: A549; assay: Cytotoxicity against human A549 cells after 72 hrs by sulforhodamine B assay; format: functional, cell-based; conditions: A549, 72 h
[29] = system: HL-60; assay: Cytotoxicity against human HL60 cells after 72 hrs by sulforhodamine B assay; format: functional, cell-based; conditions: HL-60, 72 h
[30] = system: LoVo/DX; assay: Induction of apoptosis in human LoVo/DX cells assessed as increase in caspase3/7 activity at >15 uM using Ac-DEVD-ACC as substrate pretreated for 24 hrs followed by substrate addition measured for 2 hrs by fluorescence assay; format: functional, cell-based
[31] = system: 4T1; assay: Cytotoxicity against mouse 4T1 cells after 72 hrs by sulforhodamine B assay; format: functional, cell-based; conditions: 4T1, 72 h
[32] = system: LoVo; assay: Potency index, ratio of sulforaphane IC50 to compound IC50 for human LoVo cells; format: functional
[33] = system: MES-SA/Dx5; assay: Cytotoxicity against human MESSA/DX5 cells after 72 hrs by sulforhodamine B assay; format: functional, cell-based; conditions: MES-SA/Dx5, 72 h
[34] = Resistance index, ratio of IC50 for human HL60/MX2 cells to IC50 for human HL60 cells; format: functional
[35] = system: LoVo; assay: Cytotoxicity against human LoVo cells assessed as cell death at >15 uM after 24 hrs; format: cell-based
[36] = system: LoVo; assay: Induction of apoptosis in human LoVo cells assessed as increase in caspase3/7 activity at >15 uM using Ac-DEVD-ACC as substrate pretreated for 24 hrs followed by substrate addition measured for 2 hrs by fluorescence assay; format: functional, cell-based
[37] = system: Mus musculus; assay: Toxicity in BALB/c mdb mouse implanted with mouse 4T1 cells assessed as body weight loss at 300 umol/kg, ip administered five times weekly measured 3 times weekly during compound dosing; format: organism-based; conditions: in vivo
[38] = Cytotoxicity against human LoVo/DX cells after 72 hrs by sulforhodamine B assay; format: functional, cell-based
[39] = system: HL60/MX2; assay: Cytotoxicity against human HL60/MX2 cells after 72 hrs by sulforhodamine B assay; format: functional, cell-based; conditions: HL60/MX2, 72 h
[40] = system: LoVo; assay: Potency index, ratio of benzyl isothiocyanate IC50 to compound IC50 for human LoVo cells; format: functional
[41] = system: BALB/3T3; assay: Cytotoxicity against mouse BALB/3T3 cells after 72 hrs by sulforhodamine B assay; format: cell-based; conditions: BALB/3T3, 72 h
[42] = Cytotoxicity against human LoVo/DX cells assessed as cell death at >15 uM after 24 hrs; format: cell-based
[43] = system: LoVo; assay: Cytotoxicity against human LoVo cells after 72 hrs by sulforhodamine B assay; format: functional, cell-based
[44] = Resistance index, ratio of IC50 for human LoVo/DX cells to IC50 for human LoVo cells; format: functional
[45] = system: MES-SA; assay: Cytotoxicity against human MESSA cells after 72 hrs by sulforhodamine B assay; format: functional, cell-based
[46] = system: LoVo/DX; assay: Cell cycle arrest in human LoVo/DX cells at 15 uM after 24 hrs by propidium iodide staining based flow cytometric method; format: functional

## S=C=NCc1ccccc1 [BENZYL ISOTHIOCYANATE]
[1]
  Activity: 0.428 g
[2]
  Activity: 67.6%
[3]
  Activity: Active
[4]
  Activity: 300.8 ×10³ /uL
[5]
  Activity: 1.21 g
[6]
  Activity: 158.6 U/L
[7]
  Activity: 871 ×10³ /uL
[8]
  inhibition in vivo at 300 µmol/kg: 26.8%
[9]
  Activity: 8.8 ×10⁶ /uL
[10]
  Activity: 45.1%
[11]
  Activity: 64.6%
[12]
  Activity: Active
[13]
  Activity: 9.7 µmol/L
[14]
  Activity: 21.5 U/L
[15]
  Activity: 5.6 mmol/L
[16]
  Activity: Toxic
[17]
  Activity: Active
[18]
  Activity: 16 g/dL
[19]
  Activity: Active
[20]
  Activity: 36
[21]
  inhibition in vivo at 300 µmol/kg: 18.1%
[22]
  fold change (FC): 9.4
[23]
  Activity: 17.8%
[24]
  Activity: 0.13 g
[25]
  Activity: 0.245 g
[26]
  fold change (FC): 11
[27]
  Activity: Non-Toxic

## CC(C)OP(=O)(CCCCCCN=C=S)OC(C)C
[1]
  Activity: 0.535 g
[2]
  Activity: 35%
[28]
  IC50: 10 µM
[29]
  IC50: 2.9 µM
[30]
  Activity: inactive
[3]
  Activity: Active
[4]
  Activity: 259.1 ×10³ /uL
[31]
  IC50: 2.5 µM
[32]
  Ratio IC50: 10
[5]
  Activity: 1.32 g
[6]
  Activity: 163.3 U/L
[7]
  Activity: 767 ×10³ /uL
[33]
  IC50: 5.8 µM
[34]
  Ratio IC50: 1.4
[8]
  inhibition in vivo at 300 µmol/kg: -0.2%
[35]
  Activity: Toxic
[36]
  Activity: inactive
[37]
  Activity: <= 10%
[9]
  Activity: 10 ×10⁶ /uL
[38]
  IC50: 9.4 µM
[10]
  Activity: 49.6%
[11]
  Activity: 35%
[12]
  Activity: Active
[13]
  Activity: 7.1 µmol/L
[39]
  IC50: 4 µM
[14]
  Activity: 26.6 U/L
[15]
  Activity: 4.7 mmol/L
[40]
  Ratio IC50: 5
[17]
  Activity: inactive
[41]
  IC50: 11.7 µM
[18]
  Activity: 18.2 g/dL
[42]
  Activity: Toxic
[19]
  Activity: Active
[43]
  IC50: 2.7 µM
[20]
  Activity: 49
[21]
  inhibition in vivo at 300 µmol/kg: 40.4 to 41%
[22]
  fold change (FC): 2.2
[44]
  Ratio IC50: 3.5
[45]
  IC50: 9.5 µM
[23]
  Activity: inactive
[46]
  Activity: inactive
[24]
  Activity: 0.147 g
[25]
  Activity: 0.222 g
[26]
  fold change (FC): 3
